From patent US20220251044A1, “CRYSTAL FORM OF HYPOXIA-INDUCIBLE FACTOR-PROLYL HYDROXYLASE INHIBITOR” (CRYSTAL PHARMACEUTICAL (SUZHOU) CO., LTD., priority 2019, published 2022)
Converted amounts (≈) assume the structure as drawn. Read-outs that look alike come from different tables or passages of the source.

Key:
Format in all cases: physicochemical
[1] = Compressibility (tablet hardness, tensile strength); details: 80 mg, compressed at 10 kN
Description: ENERPAC manual tablet press was used for compression. 80 mg of Form CSI and WO2014014835 Form A were weighed and added into the dies of a φ6 mm round tooling, compressed at 10 kN, then stored at room temperature for 24 h until complete elastic recovery. Hardness (H) was tested with an intelligent tablet hardness tester. Diameter (D) and thickness (L) were tested with a caliper. Tensile strength of the powder was calculated with the following formula: T=2H/πDL*9.8. Under a certain force, the greater the tensile strength, the better the compressibility.

[2] = Intrinsic dissolution (IDR); details: for IDR: slope of data within 5-120 minutes
Description: The parameters for intrinsic dissolution tests in the present disclosure are as follows:
Approximately 100 mg of Form CSI or WO2014014835 Form A was added into the cavity of the die, and then compressed at 10 kN and held for 0.5 minute to obtain a tablet having a surface area of 0.5 cm^2. The die with the tablet still embedded was put into a dissolution apparatus to test the intrinsic dissolution. The slope (in μg/min) of the regression line was calculated according to the data within 5-120 minutes. IDR (in μg/min/cm^2) was further calculated according to the slope.

Hygroscopicity by DVS = details: for Weight gain under 80% RH: DVS, 25° C.
Description: Dynamic Vapor Sorption (DVS) was measured via an SMS (Surface Measurement Systems Ltd.) intrinsic DVS instrument. Its control software is DVS-Intrinsic control software. Typical parameters for DVS test are as follows: Temperature: 25° C. Gas and flow rate: N2, 200 mL/min dm/dt: 0.002%/min RH range: 0% RH to 95% RH DVS was applied to test the hygroscopicity of Form CSI and WO2014014835 Form A with about 10 mg of samples. The weight gains at each relative humidity were recorded in a cycle of 0-95%-0 RH. XRPD test was applied before and after DVS. Description and definition of hygroscopicity (general notice 9103 drug hygroscopicity test guidelines in 2015 edition of Chinese Pharmacopoeia, test at 25° C.±1° C., 80% RH. The definition of hygroscopicity in the 9th European Pharmacopoeia 5.11 is similar to the Chinese Pharmacopoeia.).

[3] = Kinetic solubility in SGF, FaSSIF, FeSSIF and water
From the text: The parameters for kinetic solubility tests of the present disclosure are as follows:
When solubility test is used to predict the in vivo performance of a drug, it is critical to simulate in vivo conditions as closely as possible. For oral medication, Simulated Gastric Fluid (SGF), Fasted-State Simulated Intestinal Fluid (FaSSIF), Fed-State Simulated Intestinal Fluid (FeSSIF) can be used to simulate the condition in vivo and predict the effects of feeding, thus solubility in such mediums is closer to that in vivo.
20 mg of Form CSI and 20 mg of WO2014014835 Form A were suspended into 4.0 mL of SGF, 4.0 mL of FaSSIF, 4.0 mL of FeSSIF and 4.0 mL of water to get saturated solutions. After equilibrated for 1 h, 4 h, 8 h and 24 h, the concentrations (μg/mL) of Compound I of the saturated solutions were measured by UPLC.

[4] = Physical stability on grinding (XRPD); details: ground manually for 5 min in a mortar
Description: Form CSI and WO2014014835 Form A was ground manually for 5 min in a mortar.

For `Cc1nc(C(=O)NCC(=O)O)c(O)c2ccc(Oc3ccccc3)cc12` [WO2014014835 Form A, [(4-hydroxy-1-methyl-7-phenoxy-isoquinoline-3-carbonyl)-amino]-acetic acid, reference compound], the Tensile strength ([1]; T=2H/πDL*9.8) was 0.33 MPa, the Hardness ([1]; φ6 mm round tooling, after 24 h) was 0.67 kgf and the Cumulative dissolution ([2]; pH4.5 PBS, 5 min, 37° C., 0.5 cm^2 tablet) was 19.9 µg. For the same compound, the Cumulative dissolution ([2]; pH4.5 PBS, 10 min) was 24.1 µg, the Cumulative dissolution ([2]; pH4.5 PBS, 15 min) was 28.7 µg and the Cumulative dissolution ([2]; pH4.5 PBS, 20 min) was 34.0 µg. The Cumulative dissolution ([2]; pH4.5 PBS, 25 min) was 36.6 µg, the Cumulative dissolution ([2]; pH4.5 PBS, 30 min) was 40.2 µg and the Cumulative dissolution ([2]; pH4.5 PBS, 45 min) was 49.1 µg. It also gave a Cumulative dissolution ([2]; pH4.5 PBS, 60 min) of 59.4 µg, a Cumulative dissolution ([2]; pH4.5 PBS, 90 min) of 80.0 µg and a Cumulative dissolution ([2]; pH4.5 PBS, 120 min) of 98.2 µg. It also gave an IDR ([2]; pH4.5 PBS) of 1.3454 μg/min/cm^2, a Cumulative dissolution ([2]; pH6.8 PBS, 5 min, 37° C., 0.5 cm^2 tablet) of 439.4 µg and a Cumulative dissolution ([2]; pH6.8 PBS, 10 min) of 815.5 µg. The Cumulative dissolution ([2]; pH6.8 PBS, 15 min) was 1158.2 µg, the Cumulative dissolution ([2]; pH6.8 PBS, 20 min) was 1488.8 µg and the Cumulative dissolution ([2]; pH6.8 PBS, 25 min) was 1800.6 µg. It also gave a Cumulative dissolution ([2]; pH6.8 PBS, 30 min) of 2110.0 µg, a Cumulative dissolution ([2]; pH6.8 PBS, 45 min) of 2853.7 µg and a Cumulative dissolution ([2]; pH6.8 PBS, 60 min) of 3624.8 µg. The Cumulative dissolution ([2]; pH6.8 PBS, 90 min) was 5068.5 µg, the Cumulative dissolution ([2]; pH6.8 PBS, 120 min) was 6427.1 µg and the IDR ([2]; pH6.8 PBS) was 102.8372 μg/min/cm^2. The “Weight gain under 80% RH” value (Hygroscopicity by DVS) was 0.21%, the “Weight gain under 80% RH” value (Hygroscopicity by DVS; listed as Form A) was 0.21% and the Hygroscopicity class (Hygroscopicity by DVS; weight gain under 80% RH) was “slightly hygroscopic”. The “Kinetic solubility (concentration of Compound I in saturated solution)” value (shortened to “Kinetic solubility”) ([3]; FaSSIF, 1 hour) was 241.2 µg/mL, the solubility kinetic at 4 h ([3]; FaSSIF, thermodynamic from solid, FaSSIF, 4 hours, read-out: Kinetic solubility (concentration of Compound I in saturated solution)) was 569 µg/mL (≈ 1620 µM) and the solubility kinetic at 8 h ([3]; FaSSIF, thermodynamic from solid, FaSSIF, 8 hours, read-out: Kinetic solubility (concentration of Compound I in saturated solution)) was 567 µg/mL (≈ 1610 µM). It also gave a solubility kinetic at 24 h ([3]; FaSSIF, thermodynamic from solid, FaSSIF, 24 hours, read-out: Kinetic solubility (concentration of Compound I in saturated solution)) of 570 µg/mL (≈ 1620 µM), a solubility kinetic at 1 h ([3]; FeSSIF, thermodynamic from solid, FeSSIF, 1 hour, read-out: Kinetic solubility (concentration of Compound I in saturated solution)) of 146 µg/mL (≈ 415 µM) and a solubility kinetic at 4 h ([3]; FeSSIF, thermodynamic from solid, FeSSIF, 4 hours, read-out: Kinetic solubility (concentration of Compound I in saturated solution)) of 150 µg/mL (≈ 426 µM). The solubility kinetic at 8 h ([3]; FeSSIF, thermodynamic from solid, FeSSIF, 8 hours, read-out: Kinetic solubility (concentration of Compound I in saturated solution)) was 161 µg/mL (≈ 456 µM), the solubility kinetic at 24 h ([3]; FeSSIF, thermodynamic from solid, FeSSIF, 24 hours, read-out: Kinetic solubility (concentration of Compound I in saturated solution)) was 269 µg/mL (≈ 762 µM) and the “Kinetic solubility” value ([3]; SGF, 1 hour) was 3.6 µg/mL. The “Kinetic solubility” value ([3]; SGF, 4 hours) was 3.7 µg/mL, the “Kinetic solubility” value ([3]; SGF, 8 hours) was 3.7 µg/mL and the “Kinetic solubility” value ([3]; SGF, 24 hours) was 3.6 µg/mL. For the same compound, the “Kinetic solubility” value ([3]; water, 1 hour) was 4.7 µg/mL, the “Kinetic solubility” value ([3]; water, 4 hours) was 7.9 µg/mL and the “Kinetic solubility” value ([3]; water, 8 hours) was 8.4 µg/mL. The “Kinetic solubility” value ([3]; water, 24 hours) was 10.1 µg/mL, the “Crystalline form and crystallinity after grinding (XRPD)” value [4] was “decreases after grinding” and the “Crystalline form and crystallinity after grinding (XRPD)” value ([4]; listed as Form A) was “decreases after grinding”.
